Where only a bound is given, the exact number is not on record here.

What all share (assay type): cell-based
The test system of one series is HIV. Description: PBMC time of addition assay. From the text: FIGS. 18 and 19 show the results of the time of addition assay with the K and Z compound. In time of addition assays the timed addition of compounds after initial infection allows the identification of specific stages of virus replication. This is seen with the positive control compound AZT. AZT is a reverse transcriptase inhibitor. […] Thus it has an antiviral target that is occurring after completion of reverse transcription. […] In general since this time of addition uses multiple rounds of infection in the PBMCs versus a single round in cell lines systems, lower concentrations of compound will often shift the curve to the left. This is seen in FIG. 18.

Series [1] concerns HIV-1 attachment to HeLa CD4 LTR B-gal cells. Description: Inhibition of attachment assay. As to conditions: for IC50: attachment assay. The protocol:
(§1) The attachment assay was performed with the HeLa CD4 LTR B-gal cells available from the AIDS Research and Reference Reagent Repository. […] HeLa CD4 LTR B-gal cells express cell surface CD4 and contain an LTR B-galactosidase reporter construct. Upon infection either the Tat protein incorporated into the virion or new Tat produced following virus integration and transcription trans-activate the LTR B-gal reporter, leading to expression of the B-galactosidase enzyme. HeLa CD4 LTR B-gal cells are routinely cultured with the required selection antibiotics and scrended for mycoplasma contamination. Twenty-four h prior to initiation of the assay cells were trypsinized, counted and 1×10^4 cells placed in a 0.2 cm well in media without selection antibiotics. Media was removed and compound media placed on the cells and incubated for 15 to 30 min at 37° C. A known titer of virus was then added to the wells and the incubation continued for 1 h. At the end of the incubation the wells were washed 6 times with media and the culture continued for 48 h. At 48 h the wells were washed one time with PBS and B-galactosidase enzyme expression determined by chemiluminescence per manufacturers instructions (Tropix Gal-screen TM, Tropix, Bedford, Mass.). Compound toxicity was monitored on sister plates using MTS dye reduction. (See Tables 14 through 16 and FIGS. 21 and 22).

The subject of series [2] is SK-1 strain of HIV in CEM-SS cells. Description: Chronically infected CEM/SK-1 cell assay, RT values. The protocol: Reverse transcriptase activity was measured in cell-free supernatants. Tritiated thymidine triphosphate (NEN) (TTP) was resuspended in distilled H2O at 5 Ci/mL. Poly rA and oligo dT were prepared as a stock solution which was kept at −20° C. The RT reaction buffer was prepared fresh on a daily basis and consists of 125 μL 1.0 M EGTA, 125 μL dH2O, 110 μL 10% SDS, 50 μL 1.0 M Tris (pH 7.4), 50 μL, 1.0 M DTT, and 40 μL 1.0 M MgCl2. These three solutions were mixed together in a ratio of 2 parts TTP, 1 part poly rA:oligo dT, and 1 part reaction buffer. Ten microliters of this reaction mixture was placed in a round bottom microtiter plate and 15 μL of virus containing supernatant was added and mixed. The plate was incubated at 37° C. in a water bath with a solid support to prevent submersion of the plate and incubated for 60 minutes. Following reaction, the reaction volume was spotted onto pieces of DE81 paper, washed 5 times for 5 minutes each in a 5% sodium phosphate buffer, 2 times for 1 minute each in distilled water, 2 times for 1 minute each in 70% ethanol, and then dried. Opti-Fluor O was added to each sample and incorporated radioactivity was quantitated utilizing a Wallac 1450 Microbetaplus liquid scintillation counter.
The chronically infected CEM cells were cultured and the assay performed in RPMI 1640 supplemental with 10% Fetal Bovine Serum (heat inactivated), 2 mM L-glutamine, 100 U/mL penicillin, […] and 10 ug/mL gentamycin. On day 3 cell-free supernatants were collected and cell viability measured by MTS dye reduction. (See Table 13 and FIG. 20).

The test system of the next series is HeLa CD4 LTR B-gal cells. Description: Attachment assay, toxicity on sister plates by MTS. The settings on record: for TC50: attachment assay. On the procedure: as §1, with “reduction.” for “reduction. (See Tables 14 through 16 and FIGS. 21 and 22).”

Potassium Iodiscorbate [Compound K]: the “suppression of virus replication” value in the series with HIV (6.4 μg/ml, added at 4 h) is recorded as “no inhibition”; in the series with HIV (6.4 μg/ml, added at 9 h) it was 71%; with HIV (64 μg/ml, added 49 h post infection) it was 75%; in the series with HIV (64 μg/ml, added at 4 h), 35%; in the series on HIV (64 μg/ml, added at 9 h), 87%.

On to Zinc Iodiscorbate [Compound Z], for which, in series [1], the “efficacy in HeLa CD4 LTR β-gal attachment assay” value was “inactive”. Moreover, the “% VC” value in series [1] (0.32 μG/Ml) is listed as 90.2%; in series [1] (1 μG/Ml), 94.8%; in series [1] (3.2 μG/Ml), 74.5%; in series [1] (10 μG/Ml), 62.4%; in series [1] (32 μG/Ml), 54.4%; in series [1] (100 μG/Ml), 66.8%. For the same substance, the “% VC” value in series [2] (0.625 μG/Ml) is 95.1%; in series [2] (2 μG/Ml), 96.8%; in series [2] (6.25 μG/Ml) it was 16.8%; in series [2] (20 μG/Ml) it was 1.2%; in series [2] (62.5 μG/Ml), 1.0%; in series [2] (200 μG/Ml), 0.5%. The values for the IC50 in series [1], in series [1] (listed as COMPOUND Z) and in series [2] (CEMSK1 chronic infection) were greater than 100 µg/mL, “IC50 (μG/mL) = >100 μg/mL” and “IC50 (μG/Ml) = 4.49”, respectively. Also, the “RT VALUES (cpm) MEAN” value in series [2] (0.625 μG/Ml) was found to be 9997.0 cpm; in series [2] (2 μG/Ml) it was 10178.7 cpm; in series [2] (6.25 μG/Ml), 1761.0 cpm; in series [2] (20 μG/Ml) it was 128.0 cpm; in series [2] (62.5 μG/Ml) it was 104.0 cpm; in series [2] (200 μG/Ml) it was 48.0 cpm. Besides, the “TOXICITY VALUES (Colt Titer) MEAN” value in the series on HeLa CD4 LTR B-gal cells (0.32 μG/Ml), with HeLa CD4 LTR B-gal cells (1 μG/Ml), in the series on HeLa CD4 LTR B-gal cells (3.2 μG/Ml), in the series with HeLa CD4 LTR B-gal cells (10 μG/Ml), with HeLa CD4 LTR B-gal cells (32 μG/Ml) and in the series on HeLa CD4 LTR B-gal cells (100 μG/Ml) was 0.989 O. D throughout. The figures for the TC50 result in the series with HeLa CD4 LTR B-gal cells and with HeLa CD4 LTR B-gal cells (listed as COMPOUND Z) were “greater than 100 μg/mL” and “TC50 (μG/mL) + >100 μg/mL”, respectively.

(Values after patent US20030181436A1, “Treatment for AIDS, HIV, and other related diseases and compounds for use therewith” (priority 2001, published 2003).)
